We go through 19 compounds from patent US20240050428A1 (Cullgen (Shanghai), Inc., priority 2020, published 2024).

SMILES strings stand for the structures. Like-named read-outs stand apart in the source and are kept apart here.

The subject of one assay is MOLM-13 cells. The assay can be described thus: Cell viability assay (CellTiter-Glo) in MOLM-13 cells, alone or with gilteritinib. The assay is classed as cell-based. The conditions noted are these: Homo sapiens, MOLM-13, 72 h, MOLM-13 cells, three days, CellTiter-Glo. In general terms: In ATP-based viability assays light output follows the ATP content of the culture.
For the next assay, the system named is MV4;11 cells. The assay can be described thus: Cell viability assay (CellTiter-Glo) in MV4;11 cells, alone or with gilteritinib. The assay is classed as cell-based. The settings on record: Homo sapiens, MV4-11, 72 h, MV4;11 cells, three days, CellTiter-Glo, read-out: MV4.
[1] abbreviates: compound alone (without gilteritinib), read-out: MOLM-13 IC50.
Setting [2] is: with gilteritinib 20 nM, read-out: MOLM-13 IC50 gilteritinib.
The mark [3] stands for this setting: compound alone (without gilteritinib), 11 IC50.
[4] abbreviates: with gilteritinib 10 nM, 11 IC50 gilteritinib.

`Cc1nn(CCCCCCNc2ccc3c(c2)C(=O)N(C2CCC(=O)NC2=O)C3=O)c(C)c1-c1cnc2cccc(C#N)c2n1` (stereo not shown) [GS-166, 3-(1-(6-((2-(2,6-Dioxopiperidin-3-yl)-1,3-dioxoisoindolin-5-yl)amino)hexyl)-3,5-dimethyl-1H-pyrazol-4-yl)quinoxaline-5-carbonitrile]: the IC50 with MOLM-13 cells (setting [1]) is 10 to 100 nM; in the assay with MOLM-13 cells (setting [2]), below 10 nM; with MV4;11 cells (setting [3]), 10 to 100 nM; with MV4;11 cells (setting [4]) it was below 10 nM.

Consider `Cc1nn(C2CC(CCCNc3ccc4c(c3)C(=O)N(C3CCC(=O)NC3=O)C4=O)C2)c(C)c1-c1cnc2ccccc2n1` (stereo not shown) [GS-167, 5-((3-(3-(3,5-Dimethyl-4-(quinoxalin-2-yl)-1H-pyrazol-1-yl)cyclobutyl)propyl)amino)-2-(2,6-dioxopiperidin-3-yl)isoindoline-1,3-dione], for which the IC50 in the assay on MOLM-13 cells (setting [1]) is above 1000 nM; in the assay with MOLM-13 cells (setting [2]) it was below 10 nM; in the assay on MV4;11 cells (setting [3]), above 1000 nM; with MV4;11 cells (setting [4]), 100 to 1000 nM.

`Cc1nn([C@H]2C[C@@H](CCCNc3ccc4c(c3)C(=O)N(C3CCC(=O)NC3=O)C4=O)C2)cc1-c1cnc2ccccc2n1` (stereo partly drawn) [GS-168, 2-(2,6-Dioxopiperidin-3-yl)-5-((3-(cis-3-(3-methyl-4-(quinoxalin-2-yl)-1H-pyrazol-1-yl)cyclobutyl)propyl)amino)isoindoline-1,3-dione]: the IC50 in the assay on MOLM-13 cells (setting [1]) was above 1000 nM; in the assay on MOLM-13 cells (setting [2]), 10 to 100 nM; in the assay with MV4;11 cells (setting [3]), 100 to 1000 nM; with MV4;11 cells (setting [4]), 10 to 100 nM.

`Cc1c(-c2cnc3ccccc3n2)cnn1[C@H]1C[C@@H](CCCNc2ccc3c(c2)C(=O)N(C2CCC(=O)NC2=O)C3=O)C1` (stereo partly drawn) [GS-169, 2-(2,6-Dioxopiperidin-3-yl)-5-((3-(cis-3-(5-methyl-4-(quinoxalin-2-yl)-1H-pyrazol-1-yl)cyclobutyl)propyl)amino)isoindoline-1,3-dione]: the IC50 is above 1000 nM in the assay on MOLM-13 cells (setting [1]), 10 to 100 nM with MOLM-13 cells (setting [2]), 100 to 1000 nM in the assay with MV4;11 cells (setting [3]) and above 1000 nM in the assay with MV4;11 cells (setting [4]).

In the case of `Cc1c(-c2cnc3ccccc3n2)cnn1[C@H]1C[C@H](CCCNc2ccc3c(c2)C(=O)N(C2CCC(=O)NC2=O)C3=O)C1` (stereo partly drawn) [GS-170, 2-(2,6-Dioxopiperidin-3-yl)-5-((3-(trans-3-(5-methyl-4-(quinoxalin-2-yl)-1H-pyrazol-1-yl)cyclobutyl)propyl)amino)isoindoline-1,3-dione], the IC50 in the assay on MOLM-13 cells (setting [1]) is above 1000 nM; with MOLM-13 cells (setting [2]), 10 to 100 nM; in the assay on MV4;11 cells (setting [3]), above 1000 nM; with MV4;11 cells (setting [4]) it was 10 to 100 nM.

In the case of `Cc1nn([C@H]2C[C@H](CCCNc3ccc4c(c3)C(=O)N(C3CCC(=O)NC3=O)C4=O)C2)cc1-c1cnc2ccccc2n1` (stereo partly drawn) [GS-171, 2-(2,6-Dioxopiperidin-3-yl)-5-((3-(trans-3-(3-methyl-4-(quinoxalin-2-yl)-1H-pyrazol-1-yl)cyclobutyl)propyl)amino)isoindoline-1,3-dione], the IC50 in the assay with MOLM-13 cells (setting [1]) is 10 to 100 nM; in the assay with MOLM-13 cells (setting [2]) it was below 10 nM; in the assay with MV4;11 cells (setting [3]), 10 to 100 nM; with MV4;11 cells (setting [4]), below 10 nM.

`CN1CCN(c2ccc3ncc(-c4cnn(C5CC(CCCNc6ccc7c(c6)C(=O)N(C6CCC(=O)NC6=O)C7=O)C5)c4)nc3c2)CC1` (stereo not shown) [GS-172, 2-(2,6-Dioxopiperidin-3-yl)-5-((3-(3-(4-(7-(4-methylpiperazin-1-yl)quinoxalin-2-yl)-1H-pyrazol-1-yl)cyclobutyl)propyl)amino)isoindoline-1,3-dione]: the IC50 with MOLM-13 cells (setting [1]) is above 1000 nM; in the assay on MOLM-13 cells (setting [2]), 100 to 1000 nM; in the assay on MV4;11 cells (setting [3]) it was 100 to 1000 nM; with MV4;11 cells (setting [4]), above 1000 nM.

Turning to `O=C1CCC(N2C(=O)c3ccc(NCCCC4CC(n5cc(-c6cnc7ccc(N8CCOCC8)cc7n6)cn5)C4)cc3C2=O)C(=O)N1` (stereo not shown) [GS-173, 2-(2,6-Dioxopiperidin-3-yl)-5-((3-(3-(4-(7-morpholinoquinoxalin-2-yl)-1H-pyrazol-1-yl)cyclobutyl)propyl)amino)isoindoline-1,3-dione], the IC50 in the assay on MOLM-13 cells (setting [1]) is 10 to 100 nM; with MOLM-13 cells (setting [2]), below 10 nM; in the assay on MV4;11 cells (setting [3]) it was 10 to 100 nM; with MV4;11 cells (setting [4]) it was 10 to 100 nM.

As for `O=C1CCC(N2C(=O)c3ccc(NCCCC4CC(n5cc(-c6cnc7ccc(N8CCNCC8)cc7n6)cn5)C4)cc3C2=O)C(=O)N1` (stereo not shown) [GS-174, 2-(2,6-Dioxopiperidin-3-yl)-5-((3-(3-(4-(7-(piperazin-1-yl)quinoxalin-2-yl)-1H-pyrazol-1-yl)cyclobutyl)propyl)amino)isoindoline-1,3-dione], the IC50 in the assay with MOLM-13 cells (setting [1]) is above 1000 nM; in the assay with MOLM-13 cells (setting [2]), below 10 nM; in the assay on MV4;11 cells (setting [3]), 100 to 1000 nM; with MV4;11 cells (setting [4]), 10 to 100 nM.

As to `N#Cc1ccc2ncc(-c3cnn(C4CC(CCCNc5ccc6c(c5)C(=O)N(C5CCC(=O)NC5=O)C6=O)C4)c3)nc2c1` (stereo not shown) [GS-175, 3-(1-(3-(3-((2-(2,6-Dioxopiperidin-3-yl)-1,3-dioxoisoindolin-5-yl)amino)propyl)cyclobutyl)-1H-pyrazol-4-yl)quinoxaline-6-carbonitrile], the IC50 with MOLM-13 cells (setting [1]) is 100 to 1000 nM; in the assay with MOLM-13 cells (setting [2]), below 10 nM; in the assay with MV4;11 cells (setting [3]), 100 to 1000 nM; in the assay on MV4;11 cells (setting [4]) it was 10 to 100 nM.

With `O=C1CCC(N2C(=O)c3ccc(NCCC[C@H]4C[C@H](n5cc(-c6cnc7ccccc7n6)cn5)C4)cc3C2=O)C(=O)N1` (stereo partly drawn) [GS-176, 2-(2,6-Dioxopiperidin-3-yl)-5-((3-(trans-3-(4-(quinoxalin-2-yl)-1H-pyrazol-1-yl)cyclobutyl)propyl)amino)isoindoline-1,3-dione], the IC50 with MOLM-13 cells (setting [1]) was in the range of 100 to 1000 nM; in the assay with MOLM-13 cells (setting [2]), 10 to 100 nM; in the assay with MV4;11 cells (setting [3]) it was 100 to 1000 nM; in the assay on MV4;11 cells (setting [4]), 10 to 100 nM.

As to `O=C1CCC(N2C(=O)c3ccc(NCCC[C@H]4C[C@@H](n5cc(-c6cnc7ccccc7n6)cn5)C4)cc3C2=O)C(=O)N1` (stereo partly drawn) [GS-177, 2-(2,6-Dioxopiperidin-3-yl)-5-((3-(cis-3-(4-(quinoxalin-2-yl)-1H-pyrazol-1-yl)cyclobutyl)propyl)amino)isoindoline-1,3-dione], the IC50 was above 1000 nM in the assay with MOLM-13 cells (setting [1]), 10 to 100 nM in the assay on MOLM-13 cells (setting [2]), above 1000 nM with MV4;11 cells (setting [3]) and 100 to 1000 nM with MV4;11 cells (setting [4]).

As for `O=C1CCC(N2C(=O)c3ccc(NC[C@H]4C[C@H](n5cc(-c6cnc7ccccc7n6)cn5)C4)cc3C2=O)C(=O)N1` (stereo partly drawn) [GS-178, 2-(2,6-Dioxopiperidin-3-yl)-5-(((trans-3-(4-(quinoxalin-2-yl)-1H-pyrazol-1-yl)cyclobutyl)methyl)amino)isoindoline-1,3-dione], the IC50 in the assay with MOLM-13 cells (setting [1]) was in the range of 100 to 1000 nM; in the assay on MOLM-13 cells (setting [2]) it was 10 to 100 nM; in the assay on MV4;11 cells (setting [3]) it was 10 to 100 nM; with MV4;11 cells (setting [4]), 10 to 100 nM.

For `O=C1CCC(N2C(=O)c3ccc(NC[C@H]4C[C@@H](n5cc(-c6cnc7ccccc7n6)cn5)C4)cc3C2=O)C(=O)N1` (stereo partly drawn) [GS-179, 2-(2,6-Dioxopiperidin-3-yl)-5-(((cis-3-(4-(quinoxalin-2-yl)-1H-pyrazol-1-yl)cyclobutyl)methyl)amino)isoindoline-1,3-dione], the IC50 with MOLM-13 cells (setting [1]) is above 1000 nM; with MOLM-13 cells (setting [2]) it was 100 to 1000 nM; in the assay on MV4;11 cells (setting [3]) it was above 1000 nM; with MV4;11 cells (setting [4]), above 1000 nM.

As to `O=C1CCC(N2C(=O)c3ccc(NC[C@H]4C[C@H](n5cc(-c6cnc7ccc(C8CCOCC8)cc7n6)cn5)C4)cc3C2=O)C(=O)N1` (stereo partly drawn) [GS-180, 2-(2,6-Dioxopiperidin-3-yl)-5-(((trans-3-(4-(7-(tetrahydro-2H-pyran-4-yl)quinoxalin-2-yl)-1H-pyrazol-1-yl)cyclobutyl)methyl)amino)isoindoline-1,3-dione], the IC50 in the assay on MOLM-13 cells (setting [1]) was 100 to 1000 nM; with MOLM-13 cells (setting [2]), 10 to 100 nM; with MV4;11 cells (setting [3]) it was 100 to 1000 nM; with MV4;11 cells (setting [4]) it was 10 to 100 nM.

`O=C1CCC(N2C(=O)c3ccc(NCCC[C@H]4C[C@H](n5cc(-c6cnc7ccc(C8CCOCC8)cc7n6)cn5)C4)cc3C2=O)C(=O)N1` (stereo partly drawn) [GS-181, 2-(2,6-Dioxopiperidin-3-yl)-5-((3-(trans-3-(4-(7-(tetrahydro-2H-pyran-4-yl)quinoxalin-2-yl)-1H-pyrazol-1-yl)cyclobutyl)propyl)amino)isoindoline-1,3-dione]: the IC50 was 10 to 100 nM in the assay with MOLM-13 cells (setting [1]), below 10 nM in the assay with MOLM-13 cells (setting [2]), 10 to 100 nM in the assay on MV4;11 cells (setting [3]) and below 10 nM in the assay with MV4;11 cells (setting [4]).

Turning to `O=C1CCC(N2C(=O)c3ccc(NCCC[C@H]4C[C@@H](n5cc(-c6cnc7ccc(C8CCOCC8)cc7n6)cn5)C4)cc3C2=O)C(=O)N1` (stereo partly drawn) [GS-182, 2-(2,6-Dioxopiperidin-3-yl)-5-((3-(cis-3-(4-(7-(tetrahydro-2H-pyran-4-yl)quinoxalin-2-yl)-1H-pyrazol-1-yl)cyclobutyl)propyl)amino)isoindoline-1,3-dione], the IC50 in the assay with MOLM-13 cells (setting [1]) was 100 to 1000 nM; with MOLM-13 cells (setting [2]), below 10 nM; in the assay on MV4;11 cells (setting [3]) it was 100 to 1000 nM; in the assay with MV4;11 cells (setting [4]), 10 to 100 nM.

Consider `O=C1CCC(N2C(=O)c3ccc(NC4CCC(CCn5cc(-c6cnc7ccccc7n6)cn5)CC4)cc3C2=O)C(=O)N1` (stereo not shown) [GS-183, 2-(2,6-Dioxopiperidin-3-yl)-5-((4-(2-(4-(quinoxalin-2-yl)-1H-pyrazol-1-yl)ethyl)cyclohexyl)amino)isoindoline-1,3-dione], for which the IC50 in the assay on MOLM-13 cells (setting [1]) was above 1000 nM; in the assay with MOLM-13 cells (setting [2]) it was 100 to 1000 nM; in the assay on MV4;11 cells (setting [3]) it was 100 to 1000 nM; in the assay with MV4;11 cells (setting [4]) it was 100 to 1000 nM.

Regarding `O=C1CCC(N2C(=O)c3ccc(NC4CCC(CCCn5cc(-c6cnc7ccccc7n6)cn5)CC4)cc3C2=O)C(=O)N1` (stereo not shown) [GS-184, 2-(2,6-Dioxopiperidin-3-yl)-5-((4-(3-(4-(quinoxalin-2-yl)-1H-pyrazol-1-yl)propyl)cyclohexyl)amino)isoindoline-1,3-dione], the IC50 with MOLM-13 cells (setting [1]) is above 1000 nM; with MOLM-13 cells (setting [2]) it was 100 to 1000 nM; in the assay with MV4;11 cells (setting [3]), 100 to 1000 nM; in the assay on MV4;11 cells (setting [4]), above 1000 nM.
